Experimental data from ChEMBL document CHEMBL1275577, “Study of the in vitro activities of rifaximin and comparator agents against 536 anaerobic intestinal bacteria from the perspective of potential utility in pathology involving bowel flora” (Antimicrob Agents Chemother, 2009).
≈ marks a conversion by molar mass, not a printed value.

How the values were obtained:
Format in all cases: functional
[1] = tested on: Clostridium acetobutylicum; assay: Antimicrobial activity against Clostridium acetobutylicum by Wadsworth agar dilution method in presence of beta-lactamase inhibitor Sulbactam
[2] = tested on: Clostridium aminobutyricum; assay: Antimicrobial activity against Clostridium aminobutyricum by Wadsworth agar dilution method in presence of beta-lactamase inhibitor Sulbactam
[3] = tested on: Clostridium cocleatum; assay: Antimicrobial activity against Clostridium cocleatum by Wadsworth agar dilution method in presence of beta-lactamase inhibitor Sulbactam; conditions: Thomasclavelia cocleata
[4] = tested on: Eubacterium limosum; assay: Antimicrobial activity against Eubacterium limosum by Wadsworth agar dilution method in presence of beta-lactamase inhibitor Sulbactam
[5] = tested on: Clostridium beijerinckii; assay: Antimicrobial activity against Clostridium beijerinckii by Wadsworth agar dilution method in presence of beta-lactamase inhibitor Sulbactam
[6] = tested on: Parvimonas micra; assay: Antimicrobial activity against Peptostreptococcus micros by Wadsworth agar dilution method in presence of beta-lactamase inhibitor Sulbactam
[7] = tested on: Bifidobacterium longum; assay: Antimicrobial activity against Bifidobacterium longum by Wadsworth agar dilution method in presence of beta-lactamase inhibitor Sulbactam
[8] = tested on: Parabacteroides distasonis; assay: Antimicrobial activity against Parabacteroides distasonis by Wadsworth agar dilution method in presence of beta-lactamase inhibitor Sulbactam
[9] = tested on: Clostridium leptum; assay: Antimicrobial activity against Clostridium leptum by Wadsworth agar dilution method in presence of beta-lactamase inhibitor Sulbactam
[10] = tested on: Peptoniphilus asaccharolyticus; assay: Antimicrobial activity against Peptoniphilus asaccharolyticus by Wadsworth agar dilution method in presence of beta-lactamase inhibitor Sulbactam
[11] = tested on: Paraclostridium bifermentans; assay: Antimicrobial activity against Clostridium bifermentans by Wadsworth agar dilution method in presence of beta-lactamase inhibitor Sulbactam
[12] = tested on: Clostridium sporogenes; assay: Antimicrobial activity against Clostridium sporogenes by Wadsworth agar dilution method in presence of beta-lactamase inhibitor Sulbactam
[13] = tested on: Prevotella bivia; assay: Antimicrobial activity against Prevotella bivia by Wadsworth agar dilution method in presence of beta-lactamase inhibitor Sulbactam
[14] = tested on: Bacteroides thetaiotaomicron; assay: Antimicrobial activity against Bacteroides thetaiotaomicron by Wadsworth agar dilution method in presence of beta-lactamase inhibitor Sulbactam
[15] = tested on: Eubacterium biforme; assay: Antimicrobial activity against Eubacterium biforme by Wadsworth agar dilution method in presence of beta-lactamase inhibitor Sulbactam; conditions: Holdemanella biformis
[16] = tested on: Prevotella corporis; assay: Antimicrobial activity against Prevotella corporis by Wadsworth agar dilution method in presence of beta-lactamase inhibitor Sulbactam
[17] = tested on: Hoylesella loescheii; assay: Antimicrobial activity against Prevotella loescheii by Wadsworth agar dilution method in presence of beta-lactamase inhibitor Sulbactam
[18] = tested on: Porphyromonas uenonis; assay: Antimicrobial activity against Porphyromonas uenonis by Wadsworth agar dilution method in presence of beta-lactamase inhibitor Sulbactam
[19] = tested on: Eubacterium rectale; assay: Antimicrobial activity against Eubacterium rectale by Wadsworth agar dilution method in presence of beta-lactamase inhibitor Sulbactam; conditions: Agathobacter rectalis
[20] = tested on: Parabacteroides merdae; assay: Antimicrobial activity against Parabacteroides merdae by Wadsworth agar dilution method in presence of beta-lactamase inhibitor Sulbactam
[21] = tested on: Paeniclostridium sordellii; assay: Antimicrobial activity against Clostridium sordellii by Wadsworth agar dilution method in presence of beta-lactamase inhibitor Sulbactam; conditions: Paraclostridium sordellii
[22] = tested on: Clostridium septicum; assay: Antimicrobial activity against Clostridium septicum by Wadsworth agar dilution method in presence of beta-lactamase inhibitor Sulbactam
[23] = tested on: Fusobacterium mortiferum; assay: Antimicrobial activity against Fusobacterium mortiferum by Wadsworth agar dilution method
[24] = tested on: Eubacterium cylindroides; assay: Antimicrobial activity against Eubacterium cylindroides by Wadsworth agar dilution method in presence of beta-lactamase inhibitor Sulbactam; conditions: Faecalitalea cylindroides
[25] = tested on: Fusobacterium necrophorum; assay: Antimicrobial activity against Fusobacterium necrophorum by Wadsworth agar dilution method in presence of beta-lactamase inhibitor Sulbactam
[26] = tested on: Propionibacterium propionicum; assay: Antimicrobial activity against Propionibacterium propionicum by Wadsworth agar dilution method in presence of beta-lactamase inhibitor Sulbactam; conditions: Arachnia propionica
[27] = tested on: Bacteroides fragilis; assay: Antimicrobial activity against Bacteroides fragilis by Wadsworth agar dilution method in presence of beta-lactamase inhibitor Sulbactam

**Q.** With `CC1(C)S[C@@H]2[C@H](NC(=O)[C@H](N)c3ccccc3)C(=O)N2[C@H]1C(=O)O` [AMPICILLIN] as the molecule, how does the MIC [1] read?
**A.** The MIC was 0.25 µg/mL.

**Q.** What about the MIC50 [1] of the same molecule?
**A.** Its MIC50 is 0.25 µg/mL.

**Q.** And the MIC90 [1]?
**A.** The MIC90 was 1 µg/mL.

**Q.** What about the MIC [2] of the same molecule?
**A.** Its MIC is 0.25 µg/mL.

**Q.** And the MIC50 [2]?
**A.** The MIC50 was 0.25 µg/mL.

**Q.** What about the MIC90 [2] of the same molecule?
**A.** Its MIC90 is 1 µg/mL.

**Q.** What about the MIC [3] of the same molecule?
**A.** Its MIC is 0.25 µg/mL.

**Q.** And the MIC50 [3]?
**A.** The MIC50 was 0.25 µg/mL.

**Q.** What about the MIC90 [3] of the same molecule?
**A.** The MIC90 was 1 µg/mL.

**Q.** What about the MIC [4] of the same molecule?
**A.** The MIC was 0.25 µg/mL.

**Q.** What about the MIC50 [4] of the same molecule?
**A.** Its MIC50 is 0.25 µg/mL.

**Q.** What about the MIC90 [4] of the same molecule?
**A.** Its MIC90 is 2 µg/mL.

**Q.** What about the MIC [5] of the same molecule?
**A.** Its MIC is 0.25 µg/mL.

**Q.** And the MIC50 [5]?
**A.** The MIC50 was 0.25 µg/mL.

**Q.** What about the MIC90 [5] of the same molecule?
**A.** The MIC90 was 1 µg/mL.

**Q.** What about the MIC [6] of the same molecule?
**A.** Its MIC is 0.25 µg/mL.

**Q.** What about the MIC50 [6] of the same molecule?
**A.** Its MIC50 is 0.25 µg/mL.

**Q.** What about the MIC90 [6] of the same molecule?
**A.** Its MIC90 is 2 µg/mL.

**Q.** What about the MIC [7] of the same molecule?
**A.** Its MIC is 0.25 µg/mL.

**Q.** What about the MIC50 [7] of the same molecule?
**A.** The MIC50 was 0.25 µg/mL.

**Q.** What about the MIC90 [7] of the same molecule?
**A.** Its MIC90 is 2 µg/mL.

**Q.** What about the MIC50 [8] of the same molecule?
**A.** Its MIC50 is 16 µg/mL.

**Q.** What about the MIC90 [8] of the same molecule?
**A.** Its MIC90 is 32 µg/mL.

**Q.** What about the MIC [9] of the same molecule?
**A.** The MIC was 0.25 µg/mL.

**Q.** And the MIC50 [9]?
**A.** Its MIC50 is 0.25 µg/mL.

**Q.** And the MIC90 [9]?
**A.** Its MIC90 is 1 µg/mL.

**Q.** What about the MIC [10] of the same molecule?
**A.** The MIC was 0.25 µg/mL.

**Q.** What about the MIC50 [10] of the same molecule?
**A.** The MIC50 was 0.25 µg/mL.

**Q.** What about the MIC90 [10] of the same molecule?
**A.** The MIC90 was 2 µg/mL.

**Q.** And the MIC [11]?
**A.** The MIC was 0.25 µg/mL.

**Q.** And the MIC50 [11]?
**A.** Its MIC50 is 0.25 µg/mL.

**Q.** What about the MIC90 [11] of the same molecule?
**A.** The MIC90 was 1 µg/mL.

**Q.** What about the MIC [12] of the same molecule?
**A.** The MIC was 0.25 µg/mL.

**Q.** And the MIC50 [12]?
**A.** Its MIC50 is 0.25 µg/mL.

**Q.** What about the MIC90 [12] of the same molecule?
**A.** Its MIC90 is 1 µg/mL.

**Q.** What about the MIC50 [13] of the same molecule?
**A.** The MIC50 was 0.5 µg/mL.

**Q.** And the MIC90 [13]?
**A.** The MIC90 was 4 µg/mL.

**Q.** And the MIC50 [14]?
**A.** The MIC50 was 4 µg/mL.

**Q.** And the MIC90 [14]?
**A.** The MIC90 was 16 µg/mL.

**Q.** What about the MIC [15] of the same molecule?
**A.** Its MIC is 0.25 µg/mL.

**Q.** And the MIC50 [15]?
**A.** The MIC50 was 0.25 µg/mL.

**Q.** And the MIC90 [15]?
**A.** The MIC90 was 2 µg/mL.

**Q.** And the MIC50 [16]?
**A.** The MIC50 was 0.5 µg/mL.

**Q.** What about the MIC90 [16] of the same molecule?
**A.** The MIC90 was 4 µg/mL.

**Q.** And the MIC50 [17]?
**A.** The MIC50 was 0.5 µg/mL.

**Q.** What about the MIC90 [17] of the same molecule?
**A.** The MIC90 was 4 µg/mL.

**Q.** What about the MIC [18] of the same molecule?
**A.** The MIC was 0.25 µg/mL.

**Q.** And the MIC50 [18]?
**A.** Its MIC50 is 0.25 µg/mL.

**Q.** What about the MIC90 [18] of the same molecule?
**A.** The MIC90 was 0.5 µg/mL.

**Q.** What about the MIC [19] of the same molecule?
**A.** Its MIC is 0.25 µg/mL.

**Q.** What about the MIC50 [19] of the same molecule?
**A.** The MIC50 was 0.25 µg/mL.

**Q.** What about the MIC90 [19] of the same molecule?
**A.** The MIC90 was 2 µg/mL.

**Q.** And the MIC50 [20]?
**A.** Its MIC50 is 16 µg/mL.

**Q.** What about the MIC90 [20] of the same molecule?
**A.** The MIC90 was 32 µg/mL.

**Q.** And the MIC [21]?
**A.** The MIC was 0.25 µg/mL.

**Q.** And the MIC50 [21]?
**A.** Its MIC50 is 0.25 µg/mL.

**Q.** What about the MIC90 [21] of the same molecule?
**A.** The MIC90 was 1 µg/mL.

**Q.** What about the MIC [22] of the same molecule?
**A.** The MIC was 0.25 µg/mL.

**Q.** And the MIC50 [22]?
**A.** Its MIC50 is 0.25 µg/mL.

**Q.** What about the MIC90 [22] of the same molecule?
**A.** The MIC90 was 1 µg/mL.

**Q.** And the MIC50 [23]?
**A.** The MIC50 was 1 µg/mL (≈ 2.86 µM).

**Q.** What about the MIC90 [23] of the same molecule?
**A.** The MIC90 was 4 µg/mL (≈ 11.4 µM).

**Q.** And the MIC [24]?
**A.** Its MIC is 0.25 µg/mL.

**Q.** And the MIC50 [24]?
**A.** Its MIC50 is 0.25 µg/mL.

**Q.** And the MIC90 [24]?
**A.** The MIC90 was 2 µg/mL.

**Q.** What about the MIC50 [25] of the same molecule?
**A.** The MIC50 was 1 µg/mL.

**Q.** And the MIC90 [25]?
**A.** The MIC90 was 4 µg/mL.

**Q.** And the MIC [26]?
**A.** The MIC was 0.25 µg/mL.

**Q.** What about the MIC50 [26] of the same molecule?
**A.** Its MIC50 is 0.25 µg/mL.

**Q.** And the MIC90 [26]?
**A.** Its MIC90 is 2 µg/mL.

**Q.** And the MIC50 [27]?
**A.** Its MIC50 is 1 µg/mL.

**Q.** What about the MIC90 [27] of the same molecule?
**A.** The MIC90 was 16 µg/mL.
